Experimental findings from patent US8008525B2, “Receptor function regulating agent” (Takeda Pharmaceutical Company Limited, priority 2003, dated 2011) are described below.

Some results are limits rather than exact numbers.

For the assay, the target named is T1, human 14273 receptor (Homo sapiens, UniProt Q5NUL3).
T1 construct: expressed in transfected cells
T1 sequence (Q5NUL3 1-361): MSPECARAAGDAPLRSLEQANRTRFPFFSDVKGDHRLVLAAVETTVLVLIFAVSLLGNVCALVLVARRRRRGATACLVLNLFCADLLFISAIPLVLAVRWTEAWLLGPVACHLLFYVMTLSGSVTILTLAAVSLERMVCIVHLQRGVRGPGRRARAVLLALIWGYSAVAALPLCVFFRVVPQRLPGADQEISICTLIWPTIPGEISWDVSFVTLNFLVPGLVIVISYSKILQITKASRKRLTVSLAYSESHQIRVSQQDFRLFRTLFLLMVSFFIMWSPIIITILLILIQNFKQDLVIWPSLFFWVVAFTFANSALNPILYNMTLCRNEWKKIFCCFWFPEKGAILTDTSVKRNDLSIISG
Kind of assay: Test Example 1: regulating effect for 14273 receptor function (agonist effect), change in intracellular calcium level by FLIPR. The format is cell-based. Conditions: CHO cell line (No. 104) expressing human 14273 receptor, change of fluorescent intensity after 35 seconds. How it is done:
CHO cell lines (No. 104) in which a human 14273 receptor has expressed was diluted to contain 3×10^4/100 μl cells, and dispensed in Black walled 96-well plate (Costar) at a density of 100 μl/well, followed by culturing overnight in a CO2 incubator. A change in intracellular calcium level was measured using FLIPR (Molecular Device). The method is described as below. 50 μg of Fluo-3AM (DOJIN) was dissolved in 21 μl of DMSO (DOJIN) and an equal volume of 20% pluronic acid (Molecular Probes) was added thereto, followed by mixing them. The mixture was added to 10.6 ml of the assay buffer [which is prepared by adding 10 ml of a solution, which is prepared by adding 20 ml of 1 M HEPES (pH 7.4, DOJIN) to 1 L of HBSS (Invitrogen), dissolving 710 mg of probenecid (Sigma) in 5 ml of 1 N NaOH, and further adding 5 ml of the above-mentioned HBSS/HEPES solution and mixing it.] supplemented with 105 μl of fetal bovine serum to prepare a fluorescent dye solution. The medium of the cell plate was removed, the fluorescent dye solution was dispensed in 100 μl each per well. The culturing was performed in a CO2 incubator for 1 hour to incorporate the fluorescent dye into the cells. The cells after culturing were washed with the assay buffer. The compounds to be added to the cells were diluted to each concentration with a buffer solution to which CHAPS (DOJIN) was added in 0.015%, and dispensed in a plate for the test sample. Following the pretreatment above, a change in intracellular calcium level after addition of the compound was determined with FLIPR to investigate the agonist effect. An EC50 value was calculated from dose-reaction curve using the change of fluorescent intensity after 35 seconds from the reaction initiation.
In general terms: A change in cytosolic calcium serves as a functional read-out for many receptors and channels.

With `O=C(O)CCc1cc(F)c(OCc2cccc(Oc3ccccc3)c2)c(F)c1` [Example 2, 3,5-Difluoro-4-[(3-phenoxyphenyl)methoxy]benzenepropanoic acid], the half-maximal effective concentration (EC50) was at most 10 µM.

Regarding `O=C(O)CCc1ccc(OCc2cccc(Oc3ccccc3)c2)c(Cl)c1` [Example 4, 3-Chloro-4-[(3-phenoxyphenyl)methoxy]benzenepropanoic acid], the EC50 is at most 10 µM.

Take `COc1cccc(COc2c(F)cc(CCC(=O)O)cc2F)c1` [Example 6, 3,5-Difluoro-4-[(3-methoxyphenyl)methoxy]benzenepropanoic acid]: the EC50 was at most 10 µM.

As for `CCOc1cccc(COc2c(F)cc(CCC(=O)O)cc2F)c1` [Example 8, 4-[(3-Ethoxyphenyl)methoxy]-3,5-difluorobenzenepropanoic acid], the EC50 was at most 10 µM.

For `CC(C)Oc1cccc(COc2c(F)cc(CCC(=O)O)cc2F)c1` [Example 10], the concentration for a half-maximal effect (EC50) was at most 10 µM.

On to `O=C(O)CCc1ccc(OCc2cccc(Oc3ccccc3)c2)c(F)c1` [Example 12, 3-Fluoro-4-[(3-phenoxyphenyl)methoxy]benzenepropanoic acid], for which the EC50 is at most 10 µM.

`O=C(O)CCc1cc(F)c(OCc2ccccc2Oc2ccccc2)c(F)c1` [Example 16, 3,5-Difluoro-4-[(2-phenoxyphenyl)methoxy]benzenepropanoic acid]: the EC50 was at most 10 µM.

As to `O=C(O)CCc1ccc(OCc2ccccc2Oc2ccccc2)c(F)c1` [Example 18, 3-Fluoro-4-[(2-phenoxyphenyl)methoxy]benzenepropanoic acid], the EC50 is at most 10 µM.

Take `O=C(O)CCc1cc(F)c(OCc2ccccc2-c2ccccc2)c(F)c1` [Example 20, 4-([1,1′-Biphenyl]-2-ylmethoxy)-3,5-difluorobenzenepropanoic acid]: the EC50 is at most 10 µM.

With `O=C(O)CCc1ccc(OCc2ccccc2-c2ccccc2)c(F)c1` [Example 22, 4-([1,1′-Biphenyl]-2-ylmethoxy)-3-fluorobenzenepropanoic acid], the half-maximal effective concentration (EC50) is at most 10 µM.

Regarding `O=C(O)CCc1ccc(OCc2ccccc2-c2ccccc2)c(Cl)c1` [Example 24, 4-([1,1′-Biphenyl]-2-ylmethoxy)-3-chlorobenzenepropanoic acid], the concentration for a half-maximal effect (EC50) is at most 10 µM.

In the case of `O=C(O)CCc1cc(F)c(OCc2ccccc2OC2CCCC2)c(F)c1` [Example 28, 3-(4-{[2-(cyclopentyloxy)benzyl]oxy}-3,5-difluorophenyl)propanoic acid], the EC50 was at most 10 µM.

On to `CC(C)COc1ccccc1COc1c(F)cc(CCC(=O)O)cc1F` [Example 32, 3-{3,5-difluoro-4-[(2-isobutoxybenzyl)oxy]phenyl}propanoic acid], for which the concentration giving a half-maximal response (EC50) was at most 10 µM.

As for `CC(C)Oc1ccccc1COc1c(F)cc(CCC(=O)O)cc1F` [Example 34, 3-{3,5-difluoro-4-[(2-isopropoxybenzyl)oxy]phenyl}propanoic acid], the EC50 was at most 10 µM.

As to `O=C(O)CCc1cc(F)c(OCc2ccccc2OC2CCCCC2)c(F)c1` [Example 36, 3-(4-{[2-(cyclohexyloxy)benzyl]oxy}-3,5-difluorophenyl)propanoic acid], the EC50 is at most 10 µM.

With `Cc1ccccc1COc1c(F)cc(CCC(=O)O)cc1F` [Example 42, 3-{3,5-difluoro-4-[(2-methylbenzyl)oxy]phenyl}propanoic acid], the EC50 is at most 10 µM.

For `O=C(O)CCc1cc(F)c(OCc2ccccc2N2CCCCC2)c(F)c1` [Example 44, 3-{3,5-difluoro-4-[(2-piperidin-1-ylbenzyl)oxy]phenyl}propanoic acid], the EC50 is at most 10 µM.

`COc1ccc(Oc2cccc(COc3c(F)cc(CCC(=O)O)cc3F)c2)cc1` [Example 46, 3-(3,5-difluoro-4-{[3-(4-methoxyphenoxy)benzyl]oxy}phenyl)propanoic acid]: the concentration for a half-maximal effect (EC50) is at most 10 µM.

With `O=C(O)CCc1cc(F)c(OCc2cccc(Oc3ccc(Cl)cc3)c2)c(F)c1` [Example 48, 3-(4-{[3-(4-chlorophenoxy)benzyl]oxy}-3,5-difluorophenyl)propanoic acid], the concentration giving a half-maximal response (EC50) is at most 10 µM.

Turning to `O=C(O)CCc1cc(F)c(OCc2cccc(OC3CCCCC3)c2)c(F)c1` [Example 52, 3-(4-{[3-(cyclohexyloxy)benzyl]oxy}-3,5-difluorophenyl)propanoic acid], the half-maximal effective concentration (EC50) was at most 10 µM.

`O=C(O)CCc1cc(F)c(OCc2cccc(Oc3ccc(F)cc3)c2)c(F)c1` [Example 54, 3-(3,5-difluoro-4-{[3-(4-fluorophenoxy)benzyl]oxy}phenyl)propanoic acid]: the half-maximal effective concentration (EC50) is at most 10 µM.

Consider `Cc1ccc(Oc2cccc(COc3c(F)cc(CCC(=O)O)cc3F)c2)cc1` [Example 56, 3-(3,5-difluoro-4-{[3-(4-methylphenoxy)benzyl]oxy}phenyl)propanoic acid], for which the half-maximal effective concentration (EC50) was at most 10 µM.

Consider `O=C(O)CCc1cc(F)c(OCc2cccc(OC3CCCC3)c2)c(F)c1` [Example 58, 3-(4-{[3-(cyclopentyloxy)benzyl]oxy}-3,5-difluorophenyl)propanoic acid], for which the 50% effective concentration (EC50) was at most 10 µM.

Take `O=C(O)CCc1cc(F)c(OCc2cccc(Oc3ccccn3)c2)c(F)c1` [Example 60, 3-(3,5-difluoro-4-{[3-(pyridin-2-yloxy)benzyl]oxy}phenyl)propanoic acid]: the concentration for a half-maximal effect (EC50) was at most 10 µM.

For `O=C(O)CCc1cc(F)c(OCc2cccc(Oc3ccsc3)c2)c(F)c1` [Example 62, 3-(3,5-difluoro-4-{[3-(3-thienyloxy)benzyl]oxy}phenyl)propanoic acid], the concentration for a half-maximal effect (EC50) is at most 10 µM.

For the compound `O=C(O)CCc1cc(F)c(OCc2cccc(Oc3cccs3)c2)c(F)c1` [Example 64, 3-(3,5-difluoro-4-{[3-(2-thienyloxy)benzyl]oxy}phenyl)propanoic acid], the EC50 is at most 10 µM.

As to `O=C(O)CCc1cc(F)c(OCc2cccc(Oc3nccs3)c2)c(F)c1` [Example 68, 3-(3,5-difluoro-4-{[3-(1,3-thiazol-2-yloxy)benzyl]oxy}phenyl)propanoic acid], the concentration for a half-maximal effect (EC50) was at most 10 µM.

Take `COc1cc(COc2ccc(CCC(=O)O)cc2F)cc(OC)c1` [Example 94, 3-{4-[(3,5-dimethoxybenzyl)oxy]-3-fluorophenyl}propanoic acid]: the concentration for a half-maximal effect (EC50) is at most 10 µM.

On to `CCOc1cc(COc2ccc(CCC(=O)O)cc2F)cc(OCC)c1` [Example 96, 3-{4-[(3,5-diethoxybenzyl)oxy]-3-fluorophenyl}propanoic acid], for which the EC50 is at most 10 µM.

On to `O=C(O)CCc1ccc(OCc2cccc3c2OCO3)c(F)c1` [Example 102, 3-[4-(1,3-benzodioxol-4-ylmethoxy)-3-fluorophenyl]propanoic acid], for which the EC50 is at most 10 µM.

For `O=C(O)CCc1ccc(OCc2cc(O)cc(Oc3ccccc3)c2)c(F)c1` [Example 118, 3-{3-fluoro-4-[(3-hydroxy-5-phenoxybenzyl)oxy]phenyl}propanoic acid], the EC50 was at most 10 µM.

As for `CC(C)Oc1cc(COc2ccc(CCC(=O)O)cc2F)cc(Oc2ccccc2)c1` [Example 124, 3-{3-fluoro-4-[(3-isopropoxy-5-phenoxybenzyl)oxy]phenyl}propanoic acid], the concentration for a half-maximal effect (EC50) was at most 10 µM.

For `CC(C)COc1cccc(COc2c(F)cc(CCC(=O)O)cc2F)c1` [Example 135, 3-{3,5-difluoro-4-[(3-isobutoxybenzyl)oxy]phenyl}propanoic acid], the concentration giving a half-maximal response (EC50) is at most 10 µM.

Consider `O=C(O)CCc1ccc(OCc2cccc(Oc3ccc(Cl)cc3)c2)c(F)c1` [Example 163, 3-(3-fluoro-4-{[3-(4-chlorophenoxy)benzyl]oxy}phenyl)propanoic acid], for which the EC50 was at most 10 µM.

Regarding `Cc1cccc(Oc2cccc(COc3ccc(CCC(=O)O)cc3F)c2)c1` [Example 169, 3-(3-fluoro-4-{[3-(3-methylphenoxy)benzyl]oxy}phenyl)propanoic acid], the EC50 was at most 10 µM.

With `Cc1ccc(Oc2cccc(COc3ccc(CCC(=O)O)cc3F)c2)cc1` [Example 171, 3-(3-fluoro-4-{[3-(4-methylphenoxy)benzyl]oxy}phenyl)propanoic acid], the EC50 is at most 10 µM.

Regarding `Cc1cc(CCC(=O)O)ccc1OCc1cccc(Oc2ccccc2)c1` [Example 173, 3-(3-methyl-4-[(3-phenoxybenzyl)oxy]phenyl)propanoic acid], the EC50 was at most 10 µM.

In the case of `Cc1cc(CCC(=O)O)ccc1OCc1cccc(OC(C)C)c1` [Example 178, 3-{4-[(3-isopropoxybenzyl)oxy]-3-methylphenyl}propanoic acid], the EC50 is at most 10 µM.

The EC50 is the concentration needed to bring the measured effect to its halfway point.
